From patent US8673882B2, “Inhibitors of autotaxin” (University of Tennessee Research Foundation, priority 2011, dated 2014)
pIC50, pKi: −log10 of the molar value.

Key:
Format in all cases: biochemical
[1] = target: T1, NPP7 (Homo sapiens, UniProt Q6UWV6); test: NPP-7 inhibition assay (pNPPC substrate); settings: 10 μM compound; 8.3 nM enzyme; 10 μM pNPPC; read-out: NPP7 Activity, % control (10 μM)
T1 sequence (Q6UWV6 22-458): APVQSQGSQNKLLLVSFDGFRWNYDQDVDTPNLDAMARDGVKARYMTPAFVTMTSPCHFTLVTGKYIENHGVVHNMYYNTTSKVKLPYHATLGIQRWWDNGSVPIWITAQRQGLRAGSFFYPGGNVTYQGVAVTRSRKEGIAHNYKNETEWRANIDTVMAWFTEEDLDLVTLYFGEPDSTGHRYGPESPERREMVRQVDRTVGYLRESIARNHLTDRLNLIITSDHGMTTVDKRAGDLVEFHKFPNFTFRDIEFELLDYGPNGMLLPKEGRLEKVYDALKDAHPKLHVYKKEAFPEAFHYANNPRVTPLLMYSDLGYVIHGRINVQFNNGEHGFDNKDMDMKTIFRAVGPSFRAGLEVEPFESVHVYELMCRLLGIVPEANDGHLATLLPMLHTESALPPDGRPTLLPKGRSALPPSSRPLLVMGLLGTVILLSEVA
Protocol: (§1) NPP6 and NPP7 are the only NPP isoforms other than ATX that are known to utilize lysophospholipid phosphodiesters as substrates. Therefore, the specificity of the chemical compounds of the invention regarding ATX was addressed by determining the activity of NPP6 and NPP7 in the presence and absence of these analogs.
(§2) Inhibition of NPP6 and NPP7 was evaluated using recombinant, purified proteins, the synthetic substrate para-nitrophenylphosphocholine (pNPPC) and a Synergy II plate reader (BioTek, Winooski, Vt.). The final concentration of each enzyme was 8.3 nM and pNPPC was 10 μM. All analogs were tested at single 10 μM concentrations. Absorbance of liberated para-nitrophenol at 405 nm was determined up to 1 hour (where responses were linear) and was normalized to vehicle control.

[2] = target: recombinant human ATX (Homo sapiens, UniProt Q13822); test: Autotaxin inhibition screening assay (FS-3 FRET substrate); settings: 10 μM compound; 2 nM recombinant human ATX; 1 μM FS-3; 2 h, 37° C.; read-out: ATX Activity, % control (10 μM)
Protocol: A 10 μM concentration of the compound is added to 2 nM recombinant human ATX and the FRET (Fluorescence Resonance Energy Transfer) ATX substrate FS-3.
As the first level of screen, 50 μl of recombinant-ATX (2 nM in final concentration) in assay buffer [(Tris 50 mM, NaCl 140 mM, KCl 5 mM, CaCl2 1 mM, MgCl2 1 mM (pH 8.0)] was mixed with 25 μL of FS-3 (Echelon Biosciences, Inc., Salt lake city, Utah), final concentration 1 μM, and 25 μl of test compound was dissolved in assay buffer with 40 μM bovine serum albumin (Sigma, St. Louis, Mo.) in 96-well Costar black-well plate. FS-3 fluorescence at excitation and emission wavelengths of 485 and 538 nm, respectively, were monitored using a FLEXstation II (Molecular Devices, Sunnyvale, Calif.) for 2 h of incubation at 37° C. The differences between time 0 and 120 min were calculated individually and normalized to the vehicle control. The mean±SD of triplicate samples was expressed as percentage of ATX activity. The ATX activity in the presence of the test compounds was compared to vehicle using the […] p<0.05 was considered significant.
The first level of testing was done using 10 μM concentrations of the compounds shown in Tables 1 and 2 added to 2 nM recombinant human ATX and the FRET substrate FS-3. After a 2 h incubation the amount of FS3 hydrolyzed was measured and the residual ATX activity was expressed as a percent of the vehicle-treated sample less the autolysis of FS3 in the absence of ATX.

[3] = target: T2, NPP6 (Homo sapiens, UniProt Q6UWR7); test: NPP-6 inhibition assay (pNPPC substrate); settings: 10 μM compound; 8.3 nM enzyme; 10 μM pNPPC; read-out: NPP6 Activity, % control (10 μM)
T2 sequence (Q6UWR7 23-419): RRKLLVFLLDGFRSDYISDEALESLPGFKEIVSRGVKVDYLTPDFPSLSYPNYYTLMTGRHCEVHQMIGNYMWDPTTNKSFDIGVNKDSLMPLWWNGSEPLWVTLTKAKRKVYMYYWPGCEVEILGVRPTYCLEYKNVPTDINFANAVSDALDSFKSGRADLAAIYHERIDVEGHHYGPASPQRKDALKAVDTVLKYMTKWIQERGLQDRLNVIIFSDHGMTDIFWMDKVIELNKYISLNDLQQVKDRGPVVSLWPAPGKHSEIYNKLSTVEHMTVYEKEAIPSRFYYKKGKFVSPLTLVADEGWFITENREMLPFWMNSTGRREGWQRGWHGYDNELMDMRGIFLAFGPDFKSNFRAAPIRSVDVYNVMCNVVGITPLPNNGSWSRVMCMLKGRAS
Protocol: as §1, §2

[4] = target: recombinant, purified human ATX (Homo sapiens, UniProt Q13822); test: Mechanism of autotaxin inhibition (IC50, Ki, Ki′; FS-3 hydrolysis); settings: for pIC50: 8.3 nM ATX, 1 μM FS-3, 15 μM BSA; for ATX Mechanism of inhibition: FS-3 0.3 μM to 20 μM, inhibitor 0, 0.5× and 2× IC50
Protocol: The mechanism of inhibition of ATX was determined using recombinant, purified human ATX and FS-3. Final ATX and FS-3 concentrations were 8.3 nM and 1 μM, respectively and the assay buffer with 15 μM fatty acid tree BSA. To calculate IC50, full dose responses were determined for the test compounds. […] Simultaneous non-linear regression, using, WinNonLin® 6.1 (Pharsight, Mountain View, Calif.) was used to assign the mechanism of inhibition. Ki and Ki′ values (the affinity for free enzyme and enzyme substrate complex, respectively) were determined by calculating the lowest averaged percent residuals for each mechanism derived from curve fitting using the Michealis-Menten equations for competitive, uncompetitive, mixed-mode, and non-competitive inhibition.

[5] = affinity for enzyme substrate complex

Row | SMILES | remaining activity at 10 µM [1] | remaining activity at 10 µM [2] | remaining activity at 10 µM [3] | pIC50 [4] | ATX Mechanism of inhibition [4] | pKi [4, 5] | pKi ([4]; affinity for free enzyme)
1 | CCCCCCCCCCCCCc1ccc2cc(CP(=O)(O)O)ccc2c1 [Compound 34b, 6-Tridecylnaphthalen-2-yl-methylphosphonic acid] | 94.7% | 50.8% | 100% | – | – | – | –
2 | CCCCCCCCCCCCCCCc1ccc(COP(O)(O)=S)cc1 [Compound 47, O-4-pentadecylbenzyl O,O-dihydrogen phosphorothioate] | 92.9% | – | 98.8% | 5.81 | Mixed | 5.35 | 5.35
3 | CCCCCCCCCCCCc1ccc2cc(CP(=O)(O)O)ccc2c1 [Compound 34a, 6-Dodecylnaphthalen-2-yl-methylphosphonic acid] | 98.8% | 19.9% | 101% | – | – | – | –
4 | CCCCCCCCCCCCCCCc1ccc(C(O)P(=O)(O)O)cc1 (stereo not shown) [Compound 37, Hydroxy-4-pentadecylphenylmethylphosphonic acid] | 101% | 9.2% | 99.6% | 6.14 | Mixed | 6.15 | 6.35
5 | CCCCCCCCCCCCCCCCS(=O)(=O)Nc1ccc(CP(=O)(O)O)cc1 [Compound 4, 4-(Hexadecane-1-sulfonylamino)benzyl phosphonic acid] | 93.5% | 24.1% | 102% | – | – | – | –
6 | CCCCCCCCCC/C=C/c1ccc2cc(CP(=O)(O)O)ccc2c1 [Compound 30a, (E)-6-Dodec-1-enyl-naphthalen-2-yl-methylphosphonic acid] | 100% | 61.3% | 103% | – | – | – | –
7 | CCCCCCCCCCCCC/C=C/c1ccc(CP(=O)(O)O)cc1 [Compound 18, (E)-4-(Pentadec-1-enyl)benzylphosphonic acid] | 97.7% | 18.8% | 104% | – | – | – | –
8 | CCCCCCCCCCCCCCCc1ccc(COP(=O)(O)O)cc1 [Compound 45, 4-pentadecylbenzyl dihydrogen phosphate] | 98.8% | 85.2% | 101% | – | – | – | –
9 | CCCCCCCCCCCCCCCc1ccc(C(F)P(=O)(O)O)cc1 (stereo not shown) [Compound 41, Fluoro-4-pentadecylphenylmethyl phosphonic acid] | 103% | 42.3% | 101% | 4.75 | Mixed | 5.26 | 5.30
10 | CCCCCCCCCCCCCCCc1ccc(C(Br)P(=O)(O)O)cc1 (stereo not shown) [Compound 43, Bromo-4-pentadecylphenylmethyl phosphonic acid] | 99.5% | 60.1% | 99.3% | 5.00 | Mixed | 5.53 | 5.21
11 | CCCCCCCCCCCCCCOc1ccc(CP(=O)(O)O)cc1 [Compound 10, 4-(Tetradecyloxy)benzylphosphonic acid] | 101% | – | 102% | – | – | – | –
12 | CCCCCCCCCCCCCCCc1ccc(C(Cl)P(=O)(O)O)cc1 (stereo not shown) [Compound 42, Chloro-4-pentadecylphenylmethyl phosphonic acid] | 99.9% | 118% | 101% | – | – | – | –
13 | CCCCCCCCCCCCCC(=O)Nc1ccc(CP(=O)(O)O)cc1 [Compound S32826, 4-tetradecanoylaminobenzyl phosphonic acid, reference compound] | 101% | – | 102% | – | – | – | –
